Data reported in article PMC7792806, “Development of Second Generation Activity-Based Chemical Probes for Sirtuins” (Molecules, 2020).
pIC50: −log10 of the molar value.

Molecular target: SIRT6 (Homo sapiens, UniProt Q8N6T7)
Assay: Sirtuin inhibition assay (HPLC), SIRT6
Type: biochemical
Set-up: host or cells: E. coli (inferred from b12)
Conditions: substrate H3K9Ac; 500 μM NAD+, 500 μM peptide, 10 μM sirtuin, pH 7.5, 37 °C; NI = Not inhibited
Description: Plasmids of SIRT1 (full length), SIRT2 (38-356), SIRT3 (102-399), and SIRT5 (34-302) were generous gifts from Dr. Hening Lin (Cornell University, Ithaca, NY, USA). SIRT6 was a gift from Cheryl Arrowsmith (Addgene plasmid #28271). The proteins were expressed and purified according to previously published protocols. The identity of the protein was confirmed by tryptic digestion followed by LC-MS/MS analysis performed at the Vermont Genetic Network (VGN) Proteomics Facility. Protein concentrations were determined by Bradford assay (Thermo Fisher Scientific, Rockford, IL, USA).
A typical reaction contained 500 μM NAD^+ and 500 μM peptide substrate (H3K9Ac for SIRT2, SIRT3 and SIRT6, p53K382Ac for SIRT1 and SIRT5) of varying concentrations of a small molecule probe in 100 mM phosphate buffer pH 7.5. The reactions were initiated by the addition of 10 μM of sirtuin and were incubated at 37 °C before being quenched by 8 μL of 10% TFA. The incubation time was controlled so that the conversion of substrate was less than 15%. The samples were then injected on an HPLC fitted to a Macherey-Nagel Nucleosil C18 column. NAD^+, NAM and AADPR (acetyl-ADP-ribose) peaks were resolved using a gradient of 0 to 20% methanol in 20 mM ammonium acetate. Chromatograms were analyzed at 260 nm. Reactions were quantified by integrating areas of peaks corresponding to NAD^+ and AADPR. […]

Sequence of SIRT6 (Q8N6T7 whole entry): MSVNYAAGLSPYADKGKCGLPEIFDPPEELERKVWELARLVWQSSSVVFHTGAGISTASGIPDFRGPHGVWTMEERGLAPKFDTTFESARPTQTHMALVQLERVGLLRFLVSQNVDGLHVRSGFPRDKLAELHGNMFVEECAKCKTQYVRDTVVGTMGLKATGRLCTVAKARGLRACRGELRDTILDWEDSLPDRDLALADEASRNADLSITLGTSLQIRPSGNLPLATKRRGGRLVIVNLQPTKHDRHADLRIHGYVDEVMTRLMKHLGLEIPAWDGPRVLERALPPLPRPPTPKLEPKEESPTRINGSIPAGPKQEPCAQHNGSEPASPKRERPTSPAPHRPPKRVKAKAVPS

## C#CCCCC1(CCC(=O)N[C@@H](CCCCNC(=S)CCC(=O)O)C(=O)N[C@@H](C)C(=O)N[C@@H](C)C(=O)OC)N=N1 [Probe 2B]
  pIC50: < 2.30
